# From patent US9302999B2, “Substituted triazoles as herbicides” (E. I. DU PONT DE NEMOURS AND COMPANY, priority 2012, dated 2016)
# Tests used:
# Type in all cases: in vivo
# [1] = test system: nutsedge, yellow (yellow nutsedge, Cyperus esculentus); assay: Test C pre-/postemergence: nutsedge, yellow
# In short: (§1)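 Visual injury scored 0–100 (100 = complete control) against untreated controls after 13–15 greenhouse days. Surfactant-containing solvent formulations applied either to soil after sowing (loam/sand) or over 1- to 4-leaf plants, 2–18 cm tall.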
# [2] = test system: pigweed (Amaranthus retroflexus); assay: Test A pre-/postemergence: pigweed; details: for Pigweed plant response rating: visual rating on 0 to 100 scale (0 no effect, 100 complete control), approximately ten days
# In short: (§2)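 Pre: directed soil spray after planting in loam + sand. Post: same formulation (non-phytotoxic solvent + surfactant) on 1–2-leaf plants, 2–10 cm. Greenhouse ~10 d; visual injury 0–100 vs untreated.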
# [3] = test system: foxtail, giant (giant foxtail, Setaria faberii); assay: Test C pre-/postemergence: foxtail, giant
# In short: as §1
# corn (Zea mays) [4] = assay: Test C pre-/postemergence: corn
# In short: as §1
# [5] = test system: winter wheat (Triticum aestivum); assay: Test C pre-/postemergence: winter wheat
# In short: as §1
# [6] = test system: johnsongrass (Sorghum halepense); assay: Test C pre-/postemergence: johnsongrass
# In short: as §1
# corn (Zea mays) [7] = assay: Test A pre-/postemergence: corn
# In short: as §2
# soybean (Glycine max) = assay: Test C pre-/postemergence: soybean
# In short: as §1
# [8] = test system: chickweed (common chickweed, Stellaria media); assay: Test C postemergence: chickweed
# In short: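 Visual ratings of 0 (no effect) to 100 (complete control) were made against controls 13-15 days after a postemergence spray, with plants kept in a greenhouse. Plants were 2-18 cm tall (1- to 4-leaf stage) in Redi-Earth peat/vermiculite medium at treatment.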
# [9] = test system: velvetleaf (Abutilon theophrasti); assay: Test C pre-/postemergence: velvetleaf
# In short: as §1
# [10] = test system: morningglory (Ipomoea coccinea); assay: Test C pre-/postemergence: morningglory
# In short: as §1
# [11] = test system: galium (catchweed bedstraw, Galium aparine); assay: Test C pre-/postemergence: galium
# In short: as §1
# [12] = Postemergence, 31 g ai/ha, scale 0 to 100 (0 no effect, 100 complete control)
# [13] = Postemergence, 62 g ai/ha, scale 0 to 100 (0 no effect, 100 complete control)
# [14] = Postemergence, 125 g ai/ha, scale 0 to 100, 0 no effect, 100 complete control
# [15] = Postemergence, 250 g ai/ha, scale 0 to 100
# [16] = Preemergence, 125 g ai/ha, scale 0 to 100, 0 no effect, 100 complete control
# [17] = Preemergence, 250 g ai/ha, scale 0 to 100, 0 no effect, 100 complete control
# [18] = Postemergence, 125 g ai/ha, 0 to 100 scale, 0 is no effect, 100 is complete control
# [19] = Preemergence, 125 g ai/ha, 0 to 100 scale where 0 is no effect and 100 is complete control
# [20] = Preemergence, 500 g ai/ha, 0 to 100 scale (0 no effect, 100 complete control)
# [21] = Preemergence, 31 g ai/ha, scale of 0 to 100, 0 is no effect, 100 is complete control
# [22] = Preemergence, 62 g ai/ha, scale of 0 to 100, 0 is no effect, 100 is complete control
# [23] = Postemergence, 500 g ai/ha, visual rating on 0 to 100 scale (0 no effect, 100 complete control), approximately ten days
# [24] = 31 g ai/ha, scale 0 to 100 (0 no effect, 100 complete control)
# [25] = 62 g ai/ha, scale 0 to 100 (0 no effect, 100 complete control)
# [26] = 125 g ai/ha, scale 0 to 100, 0 no effect, 100 complete control
smiles,measurement,setting,value
Cc1nn(-c2ccc(F)c(F)c2)nc1Oc1ccnc(C(F)(F)F)c1 [Compound 145],"Plant response rating, Nutsedge, Yellow",[1]; [12],5
same,"Plant response rating, Nutsedge, Yellow",[1]; [13],10
same,"Plant response rating, Nutsedge, Yellow",[1]; [14],15
same,"Plant response rating, Nutsedge, Yellow",[1]; [15],15
same,"Plant response rating, Nutsedge, Yellow",[1]; [16],5
same,"Plant response rating, Nutsedge, Yellow",[1]; [17],10
same,"Plant response rating, Pigweed",[2]; [18],100
same,Pigweed plant response rating,"[2]; Postemergence, 500 g ai/ha",100
same,"Plant response rating, Pigweed",[2]; [19],100
same,"Plant response rating, Pigweed",[2]; [20],100
same,"Plant response rating, Foxtail, Giant",[3]; [12],15
same,"Plant response rating, Foxtail, Giant",[3]; [13],20
same,"Plant response rating, Foxtail, Giant",[3]; [14],50
same,"Plant response rating, Foxtail, Giant",[3]; [15],85
same,"Plant response rating, Foxtail, Giant",[3]; [21],95
same,"Plant response rating, Foxtail, Giant",[3]; [22],100
same,"Plant response rating, Foxtail, Giant",[3]; [16],100
same,"Plant response rating, Foxtail, Giant",[3]; [17],100
same,"Plant response rating, Corn",corn (Zea mays) [4]; [12],35
same,"Plant response rating, Corn",corn (Zea mays) [4]; [13],45
same,"Plant response rating, Corn",corn (Zea mays) [4]; [15],50
same,"Plant response rating, Corn",corn (Zea mays) [4]; [21],0
same,"Plant response rating, Corn",corn (Zea mays) [4]; [22],10
same,"Plant response rating, Corn",corn (Zea mays) [4]; [16],25
same,"Plant response rating, Corn",corn (Zea mays) [4]; [17],60
same,"Plant response rating, Wheat",[5]; [12],5
same,"Plant response rating, Wheat",[5]; [13],15
same,"Plant response rating, Wheat",[5]; [14],30
same,"Plant response rating, Wheat",[5]; [15],40
same,"Plant response rating, Wheat",[5]; [22],5
same,"Plant response rating, Wheat",[5]; [16],5
same,"Plant response rating, Wheat",[5]; [17],50
same,"Plant response rating, Johnsongrass",[6]; [12],10
same,"Plant response rating, Johnsongrass",[6]; [13],20
same,"Plant response rating, Johnsongrass",[6]; [14],70
same,"Plant response rating, Johnsongrass",[6]; [15],75
same,"Plant response rating, Johnsongrass",[6]; [21],0
same,"Plant response rating, Johnsongrass",[6]; [22],35
same,"Plant response rating, Johnsongrass",[6]; [16],100
same,"Plant response rating, Johnsongrass",[6]; [17],100
same,Corn plant response rating,corn (Zea mays) [7]; [18],40
same,Corn plant response rating,corn (Zea mays) [7]; [23],90
same,"Plant response rating, Corn",corn (Zea mays) [7]; [19],10
same,"Plant response rating, Corn",corn (Zea mays) [7]; [20],40
same,"Plant response rating, Soybean",soybean (Glycine max); [12],50
same,"Plant response rating, Soybean",soybean (Glycine max); [13],50
same,"Plant response rating, Soybean",soybean (Glycine max); [14],55
same,"Plant response rating, Soybean",soybean (Glycine max); [15],60
same,"Plant response rating, Soybean",soybean (Glycine max); [22],5
same,"Plant response rating, Soybean",soybean (Glycine max); [16],5
same,"Plant response rating, Soybean",soybean (Glycine max); [17],10
same,"Plant response rating, Chickweed",[8]; [24],75
same,"Plant response rating, Chickweed",[8]; [25],85
same,"Plant response rating, Chickweed",[8]; [26],98
same,"Plant response rating, Chickweed","[8]; 250 g ai/ha, scale 0 to 100",100
same,"Plant response rating, Velvetleaf",[9]; [12],35
same,"Plant response rating, Velvetleaf",[9]; [13],35
same,"Plant response rating, Velvetleaf",[9]; [14],50
same,"Plant response rating, Velvetleaf",[9]; [15],60
same,"Plant response rating, Velvetleaf",[9]; [21],0
same,"Plant response rating, Velvetleaf",[9]; [22],10
same,"Plant response rating, Velvetleaf",[9]; [16],75
same,"Plant response rating, Velvetleaf",[9]; [17],85
same,"Plant response rating, Morningglory",[10]; [12],90
same,"Plant response rating, Morningglory",[10]; [13],90
same,"Plant response rating, Morningglory",[10]; [14],95
same,"Plant response rating, Morningglory",[10]; [15],98
same,"Plant response rating, Morningglory",[10]; [21],15
same,"Plant response rating, Morningglory",[10]; [22],20
same,"Plant response rating, Morningglory",[10]; [16],70
same,"Plant response rating, Morningglory",[10]; [17],85
same,"Plant response rating, Galium",[11]; [12],80
same,"Plant response rating, Galium",[11]; [13],80
same,"Plant response rating, Galium",[11]; [14],90
same,"Plant response rating, Galium",[11]; [15],95
same,"Plant response rating, Galium",[11]; [21],60
same,"Plant response rating, Galium",[11]; [22],98
same,"Plant response rating, Galium",[11]; [16],100
same,"Plant response rating, Galium",[11]; [17],100
CCCc1nn(-c2ccc(F)cc2)nc1Cc1ccnc(C(F)(F)F)c1 [Compound 153],"Plant response rating, Nutsedge, Yellow",[1]; [12],10
same,"Plant response rating, Nutsedge, Yellow",[1]; [13],10
same,"Plant response rating, Nutsedge, Yellow",[1]; [14],15
same,"Plant response rating, Nutsedge, Yellow",[1]; [15],15
same,"Plant response rating, Nutsedge, Yellow",[1]; [21],0
same,"Plant response rating, Nutsedge, Yellow",[1]; [22],0
same,"Plant response rating, Nutsedge, Yellow",[1]; [16],5
same,"Plant response rating, Pigweed",[2]; [18],100
same,Pigweed plant response rating,"[2]; Postemergence, 500 g ai/ha",100
same,"Plant response rating, Pigweed",[2]; [19],100
same,"Plant response rating, Pigweed",[2]; [20],100
same,"Plant response rating, Foxtail, Giant",[3]; [12],45
same,"Plant response rating, Foxtail, Giant",[3]; [13],80
same,"Plant response rating, Foxtail, Giant",[3]; [14],90
same,"Plant response rating, Foxtail, Giant",[3]; [15],95
same,"Plant response rating, Foxtail, Giant",[3]; [21],100
same,"Plant response rating, Foxtail, Giant",[3]; [22],100
same,"Plant response rating, Foxtail, Giant",[3]; [16],100
same,"Plant response rating, Foxtail, Giant",[3]; [17],100
same,"Plant response rating, Corn",corn (Zea mays) [4]; [12],20
same,"Plant response rating, Corn",corn (Zea mays) [4]; [13],25
same,"Plant response rating, Corn",corn (Zea mays) [4]; [14],45
same,"Plant response rating, Corn",corn (Zea mays) [4]; [15],55
same,"Plant response rating, Corn",corn (Zea mays) [4]; [21],10
same,"Plant response rating, Corn",corn (Zea mays) [4]; [22],25
same,"Plant response rating, Corn",corn (Zea mays) [4]; [16],25
same,"Plant response rating, Corn",corn (Zea mays) [4]; [17],35
same,"Plant response rating, Wheat",[5]; [12],10
same,"Plant response rating, Wheat",[5]; [13],30
same,"Plant response rating, Wheat",[5]; [14],30
same,"Plant response rating, Wheat",[5]; [15],30
same,"Plant response rating, Wheat",[5]; [22],35
same,"Plant response rating, Wheat",[5]; [16],60
same,"Plant response rating, Wheat",[5]; [17],60
same,"Plant response rating, Johnsongrass",[6]; [12],40
same,"Plant response rating, Johnsongrass",[6]; [14],60
same,"Plant response rating, Johnsongrass",[6]; [15],90
same,"Plant response rating, Johnsongrass",[6]; [21],90
same,"Plant response rating, Johnsongrass",[6]; [22],90
same,"Plant response rating, Johnsongrass",[6]; [16],95
same,"Plant response rating, Johnsongrass",[6]; [17],98
same,"Plant response rating, Corn",corn (Zea mays) [7]; [18],60
same,Corn plant response rating,corn (Zea mays) [7]; [23],80
same,"Plant response rating, Corn",corn (Zea mays) [7]; [19],70
same,"Plant response rating, Corn",corn (Zea mays) [7]; [20],80
same,"Plant response rating, Soybean",soybean (Glycine max); [12],55
same,"Plant response rating, Soybean",soybean (Glycine max); [13],70
same,"Plant response rating, Soybean",soybean (Glycine max); [14],70
same,"Plant response rating, Soybean",soybean (Glycine max); [15],85
same,"Plant response rating, Soybean",soybean (Glycine max); [21],20
same,"Plant response rating, Soybean",soybean (Glycine max); [22],20
same,"Plant response rating, Soybean",soybean (Glycine max); [16],35
same,"Plant response rating, Soybean",soybean (Glycine max); [17],35
same,"Plant response rating, Chickweed",[8]; [24],95
same,"Plant response rating, Chickweed",[8]; [25],95
same,"Plant response rating, Chickweed",[8]; [26],95
same,"Plant response rating, Chickweed","[8]; 250 g ai/ha, scale 0 to 100",95
same,"Plant response rating, Velvetleaf",[9]; [12],50
same,"Plant response rating, Velvetleaf",[9]; [13],60
same,"Plant response rating, Velvetleaf",[9]; [14],65
same,"Plant response rating, Velvetleaf",[9]; [15],95
same,"Plant response rating, Velvetleaf",[9]; [22],85
same,"Plant response rating, Velvetleaf",[9]; [16],95
same,"Plant response rating, Velvetleaf",[9]; [17],100
same,"Plant response rating, Morningglory",[10]; [12],40
same,"Plant response rating, Morningglory",[10]; [13],80
same,"Plant response rating, Morningglory",[10]; [14],95
same,"Plant response rating, Morningglory",[10]; [15],95
same,"Plant response rating, Morningglory",[10]; [21],20
same,"Plant response rating, Morningglory",[10]; [22],30
same,"Plant response rating, Morningglory",[10]; [16],50
same,"Plant response rating, Morningglory",[10]; [17],50
same,"Plant response rating, Galium",[11]; [12],60
same,"Plant response rating, Galium",[11]; [13],65
same,"Plant response rating, Galium",[11]; [14],85
same,"Plant response rating, Galium",[11]; [15],85
same,"Plant response rating, Galium",[11]; [21],80
same,"Plant response rating, Galium",[11]; [22],98
same,"Plant response rating, Galium",[11]; [16],100
same,"Plant response rating, Galium",[11]; [17],100
